Data: the NIST ThermoML archive (doi:10.1021/je060271a)
Where “and” joins values, the source holds several entries; their conditions need not be identical. Identical values can stand only once. ± gives the expanded uncertainty stated by the source.

Conditions: Liquid, Vibrating tube method

CCCCCCCC(=O)OCC(COC(=O)CCCCCCC)(COC(=O)CCCCCCC)COC(=O)CCCCCCC [pentaerythritol tetraoctanoate]
Conditions | mass density
303.15 K, 32860 kPa | 974.3 ± 1.2 kg/m3
303.15 K, 32891 kPa | 974.3 ± 1.2 kg/m3
303.15 K, 32922 kPa | 974.2 ± 1.2 kg/m3
303.15 K, 32960 kPa | 974.3 ± 1.2 kg/m3
303.15 K, 32992 kPa | 974.4 ± 1.2 kg/m3
303.15 K, 33022 kPa | 974.3 ± 1.2 kg/m3
303.15 K, 33060 kPa | 974.4 ± 1.2 kg/m3
303.15 K, 33092 kPa | 974.4 ± 1.2 kg/m3
303.15 K, 33129 kPa | 974.4 ± 1.2 kg/m3
303.15 K, 33161 kPa | 974.4 ± 1.2 kg/m3
303.15 K, 33192 kPa | 974.4 ± 1.2 kg/m3
303.15 K, 33231 kPa | 974.5 ± 1.2 kg/m3
303.15 K, 33263 kPa | 974.4 ± 1.2 kg/m3
303.15 K, 33295 kPa | 974.5 ± 1.2 kg/m3
303.15 K, 33327 kPa | 974.5 ± 1.2 kg/m3
303.15 K, 33366 kPa | 974.6 ± 1.2 kg/m3
303.15 K, 33398 kPa | 974.6 ± 1.2 kg/m3
303.15 K, 33437 kPa | 974.6 ± 1.2 kg/m3
303.15 K, 33469 kPa | 974.5 ± 1.2 kg/m3
303.15 K, 33502 kPa | 974.6 ± 1.2 kg/m3
303.15 K, 33541 kPa | 974.8 ± 1.2 kg/m3
303.15 K, 33574 kPa | 974.6 ± 1.2 kg/m3
303.15 K, 33607 kPa | 974.6 ± 1.2 kg/m3
303.15 K, 33647 kPa | 974.7 ± 1.2 kg/m3
303.15 K, 33682 kPa | 974.8 ± 1.2 kg/m3
303.15 K, 33716 kPa | 974.7 ± 1.2 kg/m3
303.15 K, 33760 kPa | 974.6 ± 1.2 kg/m3
303.15 K, 33796 kPa | 974.8 ± 1.2 kg/m3
303.15 K, 33832 kPa | 974.9 ± 1.2 kg/m3
303.15 K, 33864 kPa | 974.9 ± 1.2 kg/m3
303.15 K, 33892 kPa | 974.7 ± 1.2 kg/m3
303.15 K, 33915 kPa | 974.9 ± 1.2 kg/m3
303.15 K, 33938 kPa | 974.8 ± 1.2 kg/m3
303.15 K, 33965 kPa | 975 ± 1.2 kg/m3
303.15 K, 33988 kPa | 974.9 ± 1.2 kg/m3
303.15 K, 34016 kPa | 974.8 ± 1.2 kg/m3
303.15 K, 34039 kPa | 974.9 ± 1.2 kg/m3
303.15 K, 34062 kPa | 975 ± 1.2 kg/m3
303.15 K, 34092 kPa | 974.9 ± 1.2 kg/m3
303.15 K, 34116 kPa | 975 ± 1.2 kg/m3
303.15 K, 34141 kPa | 974.9 ± 1.2 kg/m3
303.15 K, 34166 kPa | 975 ± 1.2 kg/m3
303.15 K, 34196 kPa | 974.9 ± 1.2 kg/m3
303.15 K, 34222 kPa | 975 ± 1.2 kg/m3
303.15 K, 34255 kPa | 975.2 ± 1.2 kg/m3
303.15 K, 34284 kPa | 975.1 ± 1.2 kg/m3
303.15 K, 34313 kPa | 975 ± 1.2 kg/m3
303.15 K, 34325 kPa | 975 ± 1.2 kg/m3
303.15 K, 34326 kPa | 975.1 ± 1.2 kg/m3
303.15 K, 34328 kPa | 975.1 ± 1.2 kg/m3
303.15 K, 34329 kPa | 975.2 ± 1.2 kg/m3
303.15 K, 34330 kPa | 975.2 ± 1.2 kg/m3
303.15 K, 34332 kPa | 975.2 ± 1.2 kg/m3
303.15 K, 34333 kPa | 975.1 ± 1.2 kg/m3 and 975.2 ± 1.2 kg/m3
303.15 K, 34335 kPa | 975.1 ± 1.2 kg/m3
303.15 K, 34336 kPa | 975 ± 1.2 kg/m3
303.15 K, 34337 kPa | 975 ± 1.2 kg/m3
303.15 K, 34339 kPa | 975 ± 1.2 kg/m3
303.15 K, 34340 kPa | 975 ± 1.2 kg/m3 and 975.1 ± 1.2 kg/m3
303.15 K, 34342 kPa | 975 ± 1.2 kg/m3
303.15 K, 34343 kPa | 975 ± 1.2 kg/m3
303.15 K, 34349 kPa | 975.1 ± 1.2 kg/m3
303.15 K, 34350 kPa | 975 ± 1.2 kg/m3
303.15 K, 34361 kPa | 975.2 ± 1.2 kg/m3
303.15 K, 34371 kPa | 975.2 ± 1.2 kg/m3
303.15 K, 34374 kPa | 975 ± 1.2 kg/m3
303.15 K, 34375 kPa | 975.2 ± 1.2 kg/m3
303.15 K, 34377 kPa | 975.2 ± 1.2 kg/m3
303.16 K, 3295.7 kPa | 957.4 ± 1.2 kg/m3
303.16 K, 3309.7 kPa | 957.5 ± 1.2 kg/m3
303.16 K, 3323.8 kPa | 957.4 ± 1.2 kg/m3
303.16 K, 3335.4 kPa | 957.5 ± 1.2 kg/m3
303.16 K, 3349.9 kPa | 957.5 ± 1.2 kg/m3
303.16 K, 3364.5 kPa | 957.5 ± 1.2 kg/m3
